One experiment relates to transketolase (TKT). Nature of the experiment: western blot with anti-mouse TKT antibody and immunohistochemical analysis of mouse eyes. It counts as in vivo, mice. To be noted: injured corneas; for TKT detected by anti-mouse TKT antibody on western blot (longer film exposure): WA 2.5 mg/kg/d or epoxomicin 2.0 mg/kg/d, not detected in vehicle. As to the method:
(§1) To investigate the levels and timing of expression of TKT we performed time-course experiments using the angioinflammation corneal model of tissue repair. Groups of mice ([…]) were injured and treated every day with vehicle (Veh), 2.5 mg/kg/d WA or 2.0 mg/kg/d epoxomicin (20S proteasome inhibitor) and sacrificed on day 4 and 6 post-inflammation. In a similar experiment, mice were treated every day with vehicle or 2.5 mg/kg/d WA and sacrificed on days 3 and 5 post-injury. Equal amounts of protein from pooled samples of each group were subjected to immunoblotting or Coomassie blue staining after fractionation on 4-20% gradient polyacrylamide gels (BioRad).
(§2) The western blots of the corneal samples were re-probed with an anti-mouse TKT antibody. […] Because of the strong Ub-immunoreactivity of TKT in injured corneas, we speculate that this protein's N-terminal antigenic site is being masked by ubiquitination in the injury-related samples (the TKT antibody reacts with the N-terminal 20-amino acid portion of native TKT).
To investigate the localization of TKT, immunohistochemical analysis of mouse eyes was conducted. TKT expression is localized to the epithelium of uninjured mouse eyes, whereas TKT expression in corneas of 4 d vehicle-treated mice is almost undetectable.

Another experiment concerns native I-kappa-B-alpha. Nature of the experiment: western blotting of corneal buttons from injured healing corneas: I-kappa-B-alpha. To be noted: different doses i.p. daily for first 4 days, corneas taken day 7, western blot. It counts as in vivo, mice. As to the method:
(§3) The corneas of C57BL6 mice under anesthesia were injured by application of 0.1 N sodium hydroxide and subsequently the epithelial cell layer from the cornea and limbus was removed by scraping. Withaferin A (WA) (2.5 mg/kg/d; 4 mice) or vehicle (DMSO; 4 mice) was provided daily thereafter by i.p. injection for 6 d. Digital images of the corneas were obtained to assess the extent of tissue pathology. […] These compelling results invoke the query whether WA targets the UPP in vivo. Mice (4 per group) were injured and treated for the first 4 days with a different dose of WA or vehicle daily by i.p. injection. On day 7, mice were sacrificed and corneal buttons were isolated from injured healing corneas; equal amounts of protein from each group were analyzed by western blotting. Uninjured fellow eyes from vehicle-treated mice served as controls.
(In general: In western blotting, separated proteins are transferred to a membrane and probed.)

Another experiment deals with HO-1. Nature of the experiment: western blotting of corneal buttons from injured healing corneas: HO-1. It counts as in vivo, mice. As to conditions: i.p. daily for first 4 days, corneas taken day 7, western blot. How it is done: as §3
Experiment [1] has as its system ubiquitinated transketolase (70 kDa ubiquitinated protein). The experiment can be described thus: immunoblotting / Coomassie blue staining of corneal protein, angioinflammation corneal model: ubiquitinated transketolase. It counts as in vivo, mice. As to the method: as §1, §2
In experiment [2] the test system is ubiquitin proteasome pathway (UPP). The experiment can be described thus: UPP functions in the alkali burn injury model of corneal angiofibrotic disease. It counts as in vivo. The source says: The abundant corneal protein tissue transketolase (TKT) is believed to play an important role in corneal homeostasis. TKT is also a target of the UPP and its reduced expression is believed to contribute to corneal fibrosis. In the present invention, targeting the UPP in injured tissue can redirect the fibrotic repair process to acquire regenerative healing. Withanolides and related compounds, such as withaferin A, withanolide D and ixocarpalactone, are small molecule inhibitors that have potent UPP-targeting activity. […] There is also a reduction in the levels of ubiquitinated transketolase (TKT), an abundant corneal protein implicated in fibrogenesis.

Experiment [3] concerns cornea injured by 0.1 N sodium hydroxide (corneal opacity, neovascularization). Nature of the experiment: alkali burn corneal injury model, digital images of corneas. It counts as in vivo, C57BL6 mice. As to conditions: 2.5 mg/kg/d i.p. daily for 6 d after alkali burn, versus vehicle (DMSO). How it is done:
as §3

Molecules are shown by their SMILES.

In the case of `CC1=C(CO)C(=O)O[C@@H]([C@@H](C)[C@H]2CC[C@H]3[C@@H]4C[C@H]5O[C@]56[C@@H](O)C=CC(=O)[C@]6(C)[C@H]4CC[C@]23C)C1` [WA, Withaferin A], the “TKT staining in cornea, immunohistochemical analysis” value in the experiment with transketolase (TKT) (4 d, compared with uninjured and vehicle-treated) was “present, although at levels lower than that of uninjured cornea”. For the same compound, the “TKT detected by anti-mouse TKT antibody on western blot (longer film exposure)” value with transketolase (TKT) was “presence of the TKT”. Further, the “corneal expression of native I-kappa-B-alpha” value with native I-kappa-B-alpha is listed as “dose-dependently inhibits”. Further, in the experiment with HO-1, the “HO-1 expression in cornea” value is on record as “potently downregulated HO-1 expression to almost undetectable levels”. The “expression of 70 kDa ubiquitinated protein (UbTKT) in cornea, ubiquitin immunoblot” value in experiment [1] (2.5 mg/kg/d every day, injured corneas, versus vehicle) is given as “abundantly expressed in vehicle-treated mouse corneas compared to corneas from WA-treated mice”. Further, in experiment [1] (uninjured, vehicle and WA-treated samples, 3-, 5-, 4- and 6-day time-points), the “levels of the 70 kDa protein by Coomassie blue staining” value is listed as “not significantly altered”. The UPP functions result in experiment [2] is “potent downregulation”. For the same compound, in experiment [3], the corneal opacity result is listed as “dramatically reduced” and the “neovascularization (growth of new blood vessels in cornea)” value is given as “dramatically reduced”.
For the compound `CC[C@H](C)[C@H](NC(=O)[C@H]([C@@H](C)CC)N(C)C(C)=O)C(=O)N[C@H](C(=O)N[C@@H](CC(C)C)C(=O)[C@@]1(C)CO1)[C@@H](C)O` [epoxomicin, reference compound], in the experiment on transketolase (TKT), the “TKT detected by anti-mouse TKT antibody on western blot (longer film exposure)” value is given as “presence of the TKT”.

(Values after patent publication US8283323B2, “Withanolide compounds as inhibitors of fibrosis and identification of molecular targets for anti-fibrotic drug development” (University of Kentucky Research Foundation, priority 2006, dated 2012).)
